The text below walks through data of publication PMC5569448 (Iranian Journal of Basic Medical Sciences, 2017).

Holding throughout (format): biochemical
For experiment [1], the target named is butyrylcholinesterase (BuChE) (Homo sapiens, UniProt P06276). The experiment can be described thus: BuChE inhibition by Ellman's method. The conditions noted are these: for inhibition at 35 µM: read-out: BuChE % inhibition. A general note: In Ellman's method for cholinesterases, released thiocholine reacts with DTNB.
butyrylcholinesterase (BuChE), sequence (P06276 29-602): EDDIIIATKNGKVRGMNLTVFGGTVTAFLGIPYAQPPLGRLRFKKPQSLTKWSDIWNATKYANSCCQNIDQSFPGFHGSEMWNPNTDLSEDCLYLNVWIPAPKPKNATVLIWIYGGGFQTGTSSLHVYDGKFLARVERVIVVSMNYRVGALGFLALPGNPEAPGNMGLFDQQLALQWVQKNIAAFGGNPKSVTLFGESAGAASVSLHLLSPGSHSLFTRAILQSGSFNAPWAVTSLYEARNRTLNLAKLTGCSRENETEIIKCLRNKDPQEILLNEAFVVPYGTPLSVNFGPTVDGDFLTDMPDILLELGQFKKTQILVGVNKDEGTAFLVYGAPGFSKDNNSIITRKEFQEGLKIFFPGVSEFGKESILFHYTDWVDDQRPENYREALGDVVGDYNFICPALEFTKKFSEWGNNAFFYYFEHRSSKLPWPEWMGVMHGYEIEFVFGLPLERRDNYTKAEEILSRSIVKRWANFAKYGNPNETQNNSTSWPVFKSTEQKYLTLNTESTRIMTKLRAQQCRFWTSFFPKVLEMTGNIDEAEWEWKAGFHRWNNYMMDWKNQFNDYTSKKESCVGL
Experiment [2] addresses acetylcholinesterase (AChE) (Homo sapiens, UniProt P22303). The experiment can be described thus: AChE inhibition by Ellman's method. The conditions noted are these: for inhibition at 35 µM: read-out: AChE % inhibition.
For another experiment, the target named is AChE (Homo sapiens, UniProt P22303). Put plainly: Kinetic study of AChE inhibition.
AChE, sequence (P22303 32-614, species assumed): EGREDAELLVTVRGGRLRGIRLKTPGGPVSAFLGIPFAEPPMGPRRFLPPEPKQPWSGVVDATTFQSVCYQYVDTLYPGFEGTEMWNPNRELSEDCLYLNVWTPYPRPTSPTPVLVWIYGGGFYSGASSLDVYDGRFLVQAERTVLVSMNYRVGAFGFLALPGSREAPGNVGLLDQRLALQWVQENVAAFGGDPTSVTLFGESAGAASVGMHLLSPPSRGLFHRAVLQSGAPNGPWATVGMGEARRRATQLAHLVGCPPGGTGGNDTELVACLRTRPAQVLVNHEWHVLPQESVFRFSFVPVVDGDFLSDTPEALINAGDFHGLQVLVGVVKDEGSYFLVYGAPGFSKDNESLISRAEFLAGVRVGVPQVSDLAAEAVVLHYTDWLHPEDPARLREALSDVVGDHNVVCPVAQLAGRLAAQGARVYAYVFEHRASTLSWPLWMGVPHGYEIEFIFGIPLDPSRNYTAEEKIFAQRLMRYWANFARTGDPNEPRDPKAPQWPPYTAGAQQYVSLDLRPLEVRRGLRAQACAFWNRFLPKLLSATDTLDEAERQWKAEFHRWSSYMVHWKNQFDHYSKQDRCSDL

Each structure is given as a SMILES string.

acetylcholinesterase (AChE), sequence (P22303 32-614, species assumed): as above

A word on the inhibition: it is the drop in the measured response relative to a control, in per cent. By IC50 is commonly meant the concentration that gives 50% inhibition. A low value points to higher potency. In the case of `O=c1cc(-c2ccccc2)c2ccc(NCCCOc3cccc4cccnc34)cc2o1` [Compound 3h, 4-Phenyl-7-((3-(quinolin-8-yloxy)propyl)amino)-2H-chromen-2-one], the inhibition at 35 µM in experiment [1] turned out to be 37%. In addition, the half-maximal inhibitory concentration (IC50) in experiment [2] amounted to 30.2 µM.
The Ki is the dissociation constant of the complex between target and ligand, obtained from inhibition or displacement. Low values mean higher affinity, high ones lower affinity. With `O=c1ccc2ccc(OCCCCCOc3cccc4cccnc34)cc2o1` [Compound 3b, 7-((5-(Quinolin-8-yloxy)pentyl)oxy)-2H-chromen-2-one], the IC50 in experiment [1] stood at 26.5 µM; in experiment [2], 8.8 µM. Moreover, the inhibition constant (Ki) at AChE came to 1.32 µM. On AChE (Lineweaver-Burk plot, substrate ATChI), the “type of AChE inhibition” value is reported as “mixed-type inhibition”.
As for `Cc1cc(=O)oc2cc(OCCCOc3cccc4cccnc34)ccc12` [Compound 3c, 4-Methyl-7-(3-(quinolin-8-yloxy)propoxy)-2H-chromen-2-one], the results for the IC50 in experiment [1] and in experiment [2] were 32.4 µM and 11.3 µM, respectively.
Consider `O=c1ccc2ccc(OCCCCCSc3nc4ccccc4[nH]3)cc2o1` [Compound 3i, 7-((5-((1H-Benzo[d]imidazol-2-yl)thio)pentyl)oxy)-2H-chromen-2-one], for which, in experiment [1], the inhibition at 35 µM is 38%. Besides, the concentration for half-maximal inhibition (IC50) in experiment [2] is 11.7 µM.
Take `CCOC(=O)c1cc2ccc(OCCCCCOc3cccc4cccnc34)cc2oc1=O` [Compound 3f, Ethyl 2-oxo-7-((5-(quinolin-8-yloxy)pentyl)oxy)-2H-chromene-3-carboxylate]: in experiment [1], the inhibition at 35 µM came to 29.2%. The same molecule gave an IC50 in experiment [2] of 8.94 µM.
`Cc1cc(=O)oc2cc(OCCCCCOc3cccc4cccnc34)ccc12` [Compound 3d, 4-Methyl-7-((5-(quinolin-8-yloxy)pentyl)oxy)-2H-chromen-2-one]: the inhibition at 35 µM in experiment [1] came to 34.6%. In experiment [2], this molecule gave an IC50 of 14 µM.
Molecule `O=c1ccc2ccc(OCCCCOc3cccc4cccnc34)cc2o1` [Compound 3a, 7-(4-(Quinolin-8-yloxy)butoxy)-2H-chromen-2-one] yielded a half-inhibitory concentration (IC50) in experiment [1] of 28.3 µM. Also, the inhibition at 35 µM in experiment [2] worked out at 48%.
On to `O=c1ccc2ccc(OCCCCCSc3nc4ccccc4o3)cc2o1` [Compound 3j, 7-((5-(Benzo[d]oxazol-2-ylthio)pentyl)oxy)-2H-chromen-2-one], for which the inhibition at 35 µM in experiment [1] is 14%. For the same molecule, the IC50 in experiment [2] was 25.4 µM.
With `O=C(O)c1cc2ccc(OCCCOc3cccc4cccnc34)cc2oc1=O` [Compound 3g, 2-Oxo-7-(3-(quinolin-8-yloxy)propoxy)-2H-chromene-3-carboxylic acid], the inhibition at 35 µM worked out at 2% in experiment [1] and 15% in experiment [2].
Turning to `CCOC(=O)c1cc2ccc(OCCCOc3cccc4cccnc34)cc2oc1=O` [Compound 3e, Ethyl 2-oxo-7-(3-(quinolin-8-yloxy)propoxy)-2H-chromene-3-carboxylate], in experiment [1], the inhibition at 35 µM was 46%. For the same molecule, in experiment [2], the IC50 was 16.2 µM.
As for `O=c1cc(-c2ccccc2)c2ccc(NCCCSc3nc4ccccc4o3)cc2o1` [Compound 3l, 7-((3-(Benzo[d]oxazol-2-ylthio)propyl)amino)-4-phenyl-2H-chromen-2-one], the inhibition at 35 µM in experiment [1] is 26%. Further, the concentration for half-maximal inhibition (IC50) in experiment [2] came out at 13 µM.
With `Cc1cc(=O)oc2cc(OCCCSc3nc4ccccc4o3)ccc12` [Compound 3k, 7-(3-(Benzo[d]oxazol-2-ylthio)propoxy)-4-methyl-2H-chromen-2-one], the inhibition at 35 µM in experiment [1] came out at 11%; in experiment [2], 44%.
